Assay results as given in patent publication US20040029965A1, “Formulations for reducing or eliminating toxicity of enviromental hormones containing ursodeoxycholic acid” (priority 2000, published 2004).

Tested on: Ovariectomized female B6C3F1 mice
Experiment: Uterus weight changes by bisphenol A (uterine proliferation)
Assay type: in vivo
Description: Ovariectomized female B6C3F1 mice of 5 weeks old, the average weight of which was 18 to 22 g and had been bred in CRJ, were purchased. They were acclimated under the constant breeding conditions, i.e. the constant temperature of 24±1° C., the humidity of 60±10% and the light and darkness cycle of 12 hours, for one week and then, utilized in the experiment. The animals were supplied with solid feed purchased from Purina and supplied with water ad libitum. After acclimation, test materials dissolved in corn oil were subcutaneously injected once a day for 4 days. The test materials used herein, stock solutions of bisphenol A and UDCA were prepared using ethanol. 2 mg of bisphenol A dissolved in 0.2 ml of corn oil was administered to the mice alone or in combination with UDCA once a day. The administration dose of UDCA was 0.2 or 2.0 mg, and corn oil was administered to the solvent control.
The results are expressed as Mean±Standard Deviation values. ANOVA was performed to evaluate the mean distribution of administered groups. In case that the significance was recognized in ANOVA, the Student's t-test was carried out in the levels of p<0.05 and p<0.01.

## CC(C)(c1ccc(O)cc1)c1ccc(O)cc1 [Bisphenol A, bisphenol A]
2 mg of bisphenol A once a day, versus corn oil control
  increase of the weight of uterus: about two-fold increased
Bisphenol A 2 mg/day s.c. for 4 days, alone
  Mean weight of uterus ± SD: 13.5 ± 1.75
